Our source for the IC50 and GI50 values is US20230265098A1, “ALKYNE QUINAZOLINE DERIVATIVES AS INHIBITORS OF ERBB2” (EnLiven Therapeutics, Inc., priority 2020, published 2023).

pIC50: −log10 of the molar value. A value given as a limit tells only on which side of the number the result lay.

What is called pIC50 is the negative decadic logarithm of the IC50, by convention in mol/L. As a reminder, the IC50 is the concentration at which inhibition is half-maximal.

The target in experiment [1] is T1, phosphorylated EGFR (pEGFR) (Homo sapiens, UniProt P00533).
T1 construct: endogenous in cells; host or cells: A431
T1 sequence (P00533 25-1210): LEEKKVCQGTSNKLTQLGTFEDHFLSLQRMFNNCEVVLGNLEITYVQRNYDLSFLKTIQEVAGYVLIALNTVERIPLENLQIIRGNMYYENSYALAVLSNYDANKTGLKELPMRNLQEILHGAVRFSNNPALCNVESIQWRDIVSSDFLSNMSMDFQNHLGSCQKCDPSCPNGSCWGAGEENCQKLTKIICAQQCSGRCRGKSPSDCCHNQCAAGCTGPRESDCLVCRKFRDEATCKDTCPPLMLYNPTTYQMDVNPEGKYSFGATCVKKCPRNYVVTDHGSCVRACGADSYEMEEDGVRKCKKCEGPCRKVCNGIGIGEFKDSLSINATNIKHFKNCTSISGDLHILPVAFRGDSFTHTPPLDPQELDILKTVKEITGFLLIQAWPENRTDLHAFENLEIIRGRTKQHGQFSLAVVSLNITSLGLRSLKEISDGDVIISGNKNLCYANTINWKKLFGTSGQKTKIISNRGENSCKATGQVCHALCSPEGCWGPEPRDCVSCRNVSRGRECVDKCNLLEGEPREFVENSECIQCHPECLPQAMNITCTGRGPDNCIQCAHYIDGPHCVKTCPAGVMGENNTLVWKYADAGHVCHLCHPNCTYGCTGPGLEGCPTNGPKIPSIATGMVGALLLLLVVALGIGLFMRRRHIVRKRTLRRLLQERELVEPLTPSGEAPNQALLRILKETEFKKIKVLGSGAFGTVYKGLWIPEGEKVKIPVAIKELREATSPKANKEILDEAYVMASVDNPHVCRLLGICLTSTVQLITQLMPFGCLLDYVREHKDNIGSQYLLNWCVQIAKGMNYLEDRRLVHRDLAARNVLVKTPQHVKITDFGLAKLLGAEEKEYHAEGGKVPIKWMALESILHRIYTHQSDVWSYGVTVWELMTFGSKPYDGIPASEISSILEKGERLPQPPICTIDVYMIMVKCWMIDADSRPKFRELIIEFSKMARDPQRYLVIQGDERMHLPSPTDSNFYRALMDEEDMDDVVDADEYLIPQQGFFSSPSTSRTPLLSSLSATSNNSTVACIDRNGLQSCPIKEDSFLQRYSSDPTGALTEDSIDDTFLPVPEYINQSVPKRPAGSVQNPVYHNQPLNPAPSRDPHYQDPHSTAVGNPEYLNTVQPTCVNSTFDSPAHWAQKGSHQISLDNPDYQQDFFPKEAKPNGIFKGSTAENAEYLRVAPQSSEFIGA
The experiment can be described thus: Detection of phosphorylated EGFR (pEGFR) in EGF-stimulated A431 cells (AlphaLISA). The note with it: A431 cells (10% FBS), 4 hours with compound, then EGF 30 ng/mL for 10 minutes. It is filed as cell-based. (Alpha assays give light when donor and acceptor beads are brought close together.)

In experiment [2] the test system is BT-474 cells. The experiment can be described thus: Cell viability assay (CellTiter Glo). The experiment is classed as cell-based. The note with it: Homo sapiens, 72 hours, 2000 cells per well, 384-well, DMEM + 10% FBS.
Experiment [3] addresses T2, BaF3 EGFR-H773 V774insNPH (Homo sapiens, UniProt P00533, DUP771-773, cells depend on it).
T2 construct: Ba/F3 cell lines were engineered to express human ERBB2 or EGFR kinases, rendering the cells IL-3 independent
The experiment can be described thus: Cell viability assay (CellTiter Glo). It is filed as cell-based, mouse. The note with it: 72 hours; 3000 cells per well, 96-well plates; read-out: Cell viability IC50, nM, BaF3 EGFR-H773 V774insNPH. The method in brief:
(§1)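 Murine Ba/F3 cells made IL-3-independent by retroviral human EGFR or ERBB2 were seeded at 3000 or 300 cells per well and exposed to serially diluted compound (DMSO ≤0.1%) for 72 hours at 37° C, 5% CO2. CellTiter Glo luminescence was normalised to DMSO and media-only controls and fitted to a sigmoidal dose-response.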

Experiment [4] addresses T3, BaF3-EGFR-V769 D770insASV (Homo sapiens, UniProt P00533, DUP767-769, cells depend on it).
T3 construct: Ba/F3 cell lines were engineered to express human ERBB2 or EGFR kinases, rendering the cells IL-3 independent
The experiment can be described thus: Cell viability assay (CellTiter Glo). The experiment is classed as cell-based, mouse. The note with it: 72 hours; 3000 cells per well, 96-well plates; read-out: Cell viability IC50, nM, BaF3-EGFR-V769 D770insASV. An outline of the steps: as §1

The target in experiment [5] is T4, BaF3 EGFR-D770-N771insSVD (Homo sapiens, UniProt P00533, DUP768-770, cells depend on it).
T4 construct: Ba/F3 cell lines were engineered to express human ERBB2 or EGFR kinases, rendering the cells IL-3 independent
T4 sequence (P00533 with tags, fused parts or gaps DUP768-770): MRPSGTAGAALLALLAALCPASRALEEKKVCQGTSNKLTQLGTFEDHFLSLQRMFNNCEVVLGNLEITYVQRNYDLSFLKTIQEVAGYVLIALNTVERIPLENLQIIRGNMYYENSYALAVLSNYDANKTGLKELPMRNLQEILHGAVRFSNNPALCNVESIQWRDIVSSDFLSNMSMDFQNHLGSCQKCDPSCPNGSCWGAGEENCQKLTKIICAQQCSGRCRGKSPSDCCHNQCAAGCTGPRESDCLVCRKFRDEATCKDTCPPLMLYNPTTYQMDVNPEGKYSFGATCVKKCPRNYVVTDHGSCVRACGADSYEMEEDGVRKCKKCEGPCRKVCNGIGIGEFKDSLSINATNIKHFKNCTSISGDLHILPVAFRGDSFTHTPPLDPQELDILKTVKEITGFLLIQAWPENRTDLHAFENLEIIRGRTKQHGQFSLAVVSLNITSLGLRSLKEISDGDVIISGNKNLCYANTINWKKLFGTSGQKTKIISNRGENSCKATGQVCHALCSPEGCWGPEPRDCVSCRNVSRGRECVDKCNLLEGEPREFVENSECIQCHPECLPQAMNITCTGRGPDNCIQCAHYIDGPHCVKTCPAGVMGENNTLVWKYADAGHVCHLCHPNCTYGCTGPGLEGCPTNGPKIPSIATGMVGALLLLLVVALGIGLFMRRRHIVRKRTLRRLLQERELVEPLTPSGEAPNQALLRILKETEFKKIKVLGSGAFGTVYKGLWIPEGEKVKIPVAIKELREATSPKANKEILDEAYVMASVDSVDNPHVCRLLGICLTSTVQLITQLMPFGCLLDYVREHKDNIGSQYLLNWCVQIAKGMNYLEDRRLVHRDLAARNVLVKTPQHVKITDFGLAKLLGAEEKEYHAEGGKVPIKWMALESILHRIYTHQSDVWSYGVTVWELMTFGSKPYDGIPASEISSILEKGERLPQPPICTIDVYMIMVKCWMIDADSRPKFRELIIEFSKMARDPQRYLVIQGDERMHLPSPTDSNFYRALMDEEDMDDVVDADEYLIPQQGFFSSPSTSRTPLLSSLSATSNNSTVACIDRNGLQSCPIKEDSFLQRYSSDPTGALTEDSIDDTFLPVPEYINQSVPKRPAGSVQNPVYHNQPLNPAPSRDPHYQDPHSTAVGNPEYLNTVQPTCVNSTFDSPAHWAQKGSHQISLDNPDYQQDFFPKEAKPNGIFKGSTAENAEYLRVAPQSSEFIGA
The experiment can be described thus: Cell viability assay (CellTiter Glo). The experiment is classed as cell-based, mouse. As to conditions: 72 hours; 3000 cells per well, 96-well plates; read-out: Cell viability IC50, nM, BaF3 EGFR-D770-N771insSVD. The method in brief:
as §1
(Cellular ATP, detected with luciferase, serves as a proxy for viable cell number.)

T2 sequence (P00533 with tags, fused parts or gaps DUP771-773): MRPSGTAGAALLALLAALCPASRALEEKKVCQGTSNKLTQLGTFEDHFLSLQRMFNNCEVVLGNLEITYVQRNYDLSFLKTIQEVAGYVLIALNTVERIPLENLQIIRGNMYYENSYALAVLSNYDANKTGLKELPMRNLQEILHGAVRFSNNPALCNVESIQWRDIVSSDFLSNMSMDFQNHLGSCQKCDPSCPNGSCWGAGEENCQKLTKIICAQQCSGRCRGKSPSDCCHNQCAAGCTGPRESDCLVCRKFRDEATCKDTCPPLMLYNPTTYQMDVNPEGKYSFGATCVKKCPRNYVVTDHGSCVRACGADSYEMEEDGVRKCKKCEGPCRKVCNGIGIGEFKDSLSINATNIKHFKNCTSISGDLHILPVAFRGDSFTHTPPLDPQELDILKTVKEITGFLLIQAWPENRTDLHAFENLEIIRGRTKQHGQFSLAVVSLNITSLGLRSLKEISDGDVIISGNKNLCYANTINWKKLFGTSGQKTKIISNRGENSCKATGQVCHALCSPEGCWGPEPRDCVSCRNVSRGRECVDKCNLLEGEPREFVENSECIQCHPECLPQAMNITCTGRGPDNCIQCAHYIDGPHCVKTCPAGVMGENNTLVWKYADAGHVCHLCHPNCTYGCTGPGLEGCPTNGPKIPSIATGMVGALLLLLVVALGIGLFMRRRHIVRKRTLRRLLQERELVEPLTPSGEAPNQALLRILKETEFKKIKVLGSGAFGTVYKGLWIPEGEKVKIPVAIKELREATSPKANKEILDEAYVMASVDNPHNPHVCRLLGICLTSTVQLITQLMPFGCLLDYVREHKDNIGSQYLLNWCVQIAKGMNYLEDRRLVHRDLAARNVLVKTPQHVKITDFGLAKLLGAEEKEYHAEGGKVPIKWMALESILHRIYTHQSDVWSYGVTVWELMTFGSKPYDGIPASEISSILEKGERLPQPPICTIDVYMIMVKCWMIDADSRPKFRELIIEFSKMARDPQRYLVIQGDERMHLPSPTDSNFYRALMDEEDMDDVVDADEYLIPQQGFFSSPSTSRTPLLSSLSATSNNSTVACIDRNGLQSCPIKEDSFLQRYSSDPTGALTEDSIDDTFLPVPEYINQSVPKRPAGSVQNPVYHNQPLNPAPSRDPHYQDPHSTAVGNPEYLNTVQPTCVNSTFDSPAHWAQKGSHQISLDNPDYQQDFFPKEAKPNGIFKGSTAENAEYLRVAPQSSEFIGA
T3 sequence (P00533 with tags, fused parts or gaps DUP767-769): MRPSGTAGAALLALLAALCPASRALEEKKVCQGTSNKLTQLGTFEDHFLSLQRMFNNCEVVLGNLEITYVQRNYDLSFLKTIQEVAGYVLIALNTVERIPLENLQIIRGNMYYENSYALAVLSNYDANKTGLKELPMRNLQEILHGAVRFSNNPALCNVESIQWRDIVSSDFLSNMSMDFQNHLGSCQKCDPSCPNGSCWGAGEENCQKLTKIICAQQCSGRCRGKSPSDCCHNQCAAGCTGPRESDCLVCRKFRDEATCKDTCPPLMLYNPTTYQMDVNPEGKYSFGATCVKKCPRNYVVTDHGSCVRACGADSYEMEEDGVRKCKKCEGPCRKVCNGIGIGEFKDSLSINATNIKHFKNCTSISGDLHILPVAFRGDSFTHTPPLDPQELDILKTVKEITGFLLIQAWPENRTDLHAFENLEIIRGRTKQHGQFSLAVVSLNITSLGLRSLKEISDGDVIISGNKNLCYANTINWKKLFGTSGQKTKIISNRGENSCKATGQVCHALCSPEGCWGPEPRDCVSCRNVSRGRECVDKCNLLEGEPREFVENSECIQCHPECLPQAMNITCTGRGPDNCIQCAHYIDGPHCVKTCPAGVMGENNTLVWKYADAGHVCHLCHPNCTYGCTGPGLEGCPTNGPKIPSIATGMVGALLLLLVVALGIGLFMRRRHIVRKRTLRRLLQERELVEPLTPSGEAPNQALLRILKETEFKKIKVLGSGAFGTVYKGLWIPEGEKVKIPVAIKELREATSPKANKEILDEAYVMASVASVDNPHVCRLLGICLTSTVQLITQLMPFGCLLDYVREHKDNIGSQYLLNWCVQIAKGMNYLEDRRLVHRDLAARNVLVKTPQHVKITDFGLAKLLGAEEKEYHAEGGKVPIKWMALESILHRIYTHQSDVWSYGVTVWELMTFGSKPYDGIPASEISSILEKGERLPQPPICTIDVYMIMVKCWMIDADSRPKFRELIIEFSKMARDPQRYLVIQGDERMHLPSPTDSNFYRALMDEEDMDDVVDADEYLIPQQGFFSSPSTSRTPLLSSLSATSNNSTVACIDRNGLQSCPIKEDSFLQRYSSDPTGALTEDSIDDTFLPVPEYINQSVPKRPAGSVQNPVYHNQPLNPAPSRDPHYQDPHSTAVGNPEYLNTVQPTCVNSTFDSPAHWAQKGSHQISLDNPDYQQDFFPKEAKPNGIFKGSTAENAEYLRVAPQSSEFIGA

For the compound `CC#CC(=O)Nc1cc2c(Nc3ccc(Oc4ccn5ncnc5c4)c(C)c3)ncnc2cc1OCCN(C)C` [Compound 150, N-[7-[2-(dimethylamino)ethoxy]-4-[(3-methyl-4-[[1,2,4]triazolo[1,5-a]pyridin-7-yloxy]phenyl)amino]quinazolin-6-yl]but-2-ynamide], the pIC50 in experiment [1] is 6.63.
For the compound `CC#CC(=O)Nc1ccc2ncnc(Nc3ccc(Oc4ccn5ncnc5c4)c(C)c3)c2c1` [Compound 1, N-[4-[(3-methyl-4-[[1,2,4]triazolo[1,5-a]pyridin-7-yloxy]phenyl)amino]quinazolin-6-yl]but-2-ynamide], the IC50 in experiment [2] was determined as 3.89 nM. Moreover, the GI50 in experiment [3] was above 1000 nM; in experiment [4] it was 861 nM; in experiment [5] it was 775 nM.
For the compound `Cc1cc(Nc2ncnc3ccc(NC4=NC(C)(C)CO4)cc23)ccc1Oc1ccn2ncnc2c1` [Tucatinib, tucatinib, reference compound], in experiment [2], the 50% inhibitory concentration (IC50) was 41.8 nM.
